In patent US11572590B2, “Methods for evaluating tumor cell spheroids using 3D microfluidic cell culture device” (Dana-Farber Cancer Institute, Inc., priority 2017, dated 2023):
Like-named read-outs stand apart in the source and are kept apart here.

Legend:
Experiment in all cases: SelectScreen Kinase Profiling, single point inhibition and IC50 for off-target kinases
Assay type in all cases: biochemical
off-target kinases [1] = biological target: off-target kinases (Homo sapiens, UniProt P22612); conditions: PRKACG (PRKAC gamma), LanthaScreen Binding
off-target kinases [2] = biological target: off-target kinases (Homo sapiens, UniProt P09769); conditions: FGR, ATP Km app, ZLYTE
off-target kinases [3] = biological target: off-target kinases (Homo sapiens, UniProt P80192); conditions: MAP3K9 (MLK1), ATP Km app, ZLYTE
off-target kinases [4] = biological target: off-target kinases (Homo sapiens, UniProt Q9H0K1); conditions: SNF1LK2, ATP Km app, ZLYTE
off-target kinases [5] = biological target: off-target kinases (Homo sapiens, UniProt P22455); conditions: FGFR4, ZLYTE, ATP Km app
off-target kinases [6] = biological target: off-target kinases (Homo sapiens, UniProt P08922); conditions: ROS1, ZLYTE, ATP Km app
off-target kinases (Homo sapiens, UniProt P08922), sequence (P08922 28-2347): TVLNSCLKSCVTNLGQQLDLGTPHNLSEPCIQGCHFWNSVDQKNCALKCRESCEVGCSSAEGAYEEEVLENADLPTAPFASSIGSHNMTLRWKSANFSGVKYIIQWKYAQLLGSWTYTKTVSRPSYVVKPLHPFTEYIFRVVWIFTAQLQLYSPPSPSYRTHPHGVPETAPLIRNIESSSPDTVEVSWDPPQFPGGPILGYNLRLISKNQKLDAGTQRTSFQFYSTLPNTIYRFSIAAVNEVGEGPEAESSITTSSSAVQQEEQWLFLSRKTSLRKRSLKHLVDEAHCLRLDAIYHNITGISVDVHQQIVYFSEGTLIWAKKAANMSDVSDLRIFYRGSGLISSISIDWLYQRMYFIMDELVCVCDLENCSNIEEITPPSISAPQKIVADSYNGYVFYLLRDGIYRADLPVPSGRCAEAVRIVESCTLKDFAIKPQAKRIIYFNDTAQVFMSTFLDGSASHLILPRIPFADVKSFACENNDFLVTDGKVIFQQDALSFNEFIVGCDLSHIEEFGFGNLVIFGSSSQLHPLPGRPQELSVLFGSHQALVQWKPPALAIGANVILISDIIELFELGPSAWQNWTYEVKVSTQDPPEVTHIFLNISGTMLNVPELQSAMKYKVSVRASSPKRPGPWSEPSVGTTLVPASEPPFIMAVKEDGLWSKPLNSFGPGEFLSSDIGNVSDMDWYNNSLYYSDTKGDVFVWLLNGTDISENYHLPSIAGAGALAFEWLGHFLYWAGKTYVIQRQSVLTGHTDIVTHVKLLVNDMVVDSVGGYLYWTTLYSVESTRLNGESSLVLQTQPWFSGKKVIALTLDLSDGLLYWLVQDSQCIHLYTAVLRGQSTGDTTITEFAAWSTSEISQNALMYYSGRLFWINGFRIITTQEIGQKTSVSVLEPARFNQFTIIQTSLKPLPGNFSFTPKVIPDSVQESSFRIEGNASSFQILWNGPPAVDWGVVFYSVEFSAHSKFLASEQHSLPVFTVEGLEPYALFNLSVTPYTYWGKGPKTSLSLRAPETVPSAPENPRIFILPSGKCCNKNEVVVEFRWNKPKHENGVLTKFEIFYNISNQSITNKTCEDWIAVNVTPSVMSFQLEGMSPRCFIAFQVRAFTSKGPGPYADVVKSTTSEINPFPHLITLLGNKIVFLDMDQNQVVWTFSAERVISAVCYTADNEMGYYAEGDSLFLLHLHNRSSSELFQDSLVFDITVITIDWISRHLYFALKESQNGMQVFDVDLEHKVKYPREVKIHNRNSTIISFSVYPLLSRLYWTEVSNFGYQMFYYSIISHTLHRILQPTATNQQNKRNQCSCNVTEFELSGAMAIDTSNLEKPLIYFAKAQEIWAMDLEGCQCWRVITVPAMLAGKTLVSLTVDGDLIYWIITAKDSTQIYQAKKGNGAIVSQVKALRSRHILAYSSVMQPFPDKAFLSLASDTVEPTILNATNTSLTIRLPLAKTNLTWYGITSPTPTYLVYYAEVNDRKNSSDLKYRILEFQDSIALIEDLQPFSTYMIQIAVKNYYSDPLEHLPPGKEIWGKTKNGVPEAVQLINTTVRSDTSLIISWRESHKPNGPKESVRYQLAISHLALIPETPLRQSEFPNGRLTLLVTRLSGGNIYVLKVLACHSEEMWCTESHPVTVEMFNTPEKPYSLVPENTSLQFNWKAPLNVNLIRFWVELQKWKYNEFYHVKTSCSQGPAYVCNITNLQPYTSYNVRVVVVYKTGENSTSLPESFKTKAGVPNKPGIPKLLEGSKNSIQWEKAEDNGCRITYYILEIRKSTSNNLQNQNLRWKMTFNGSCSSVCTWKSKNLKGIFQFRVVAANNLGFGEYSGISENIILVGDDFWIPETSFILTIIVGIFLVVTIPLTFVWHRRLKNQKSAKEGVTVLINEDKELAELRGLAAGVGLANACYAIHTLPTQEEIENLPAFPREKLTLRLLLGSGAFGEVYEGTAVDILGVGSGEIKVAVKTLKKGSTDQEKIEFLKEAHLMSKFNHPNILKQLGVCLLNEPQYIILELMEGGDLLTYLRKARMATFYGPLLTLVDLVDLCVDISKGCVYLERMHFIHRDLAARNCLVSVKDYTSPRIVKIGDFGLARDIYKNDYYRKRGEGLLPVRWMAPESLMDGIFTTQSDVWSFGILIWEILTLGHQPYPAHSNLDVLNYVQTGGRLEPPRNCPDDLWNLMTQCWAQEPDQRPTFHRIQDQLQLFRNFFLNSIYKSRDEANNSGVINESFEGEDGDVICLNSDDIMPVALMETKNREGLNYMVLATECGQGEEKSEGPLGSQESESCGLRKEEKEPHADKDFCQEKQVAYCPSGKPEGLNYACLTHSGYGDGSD

off-target kinases (Homo sapiens, UniProt P80192), sequence (P80192 whole entry): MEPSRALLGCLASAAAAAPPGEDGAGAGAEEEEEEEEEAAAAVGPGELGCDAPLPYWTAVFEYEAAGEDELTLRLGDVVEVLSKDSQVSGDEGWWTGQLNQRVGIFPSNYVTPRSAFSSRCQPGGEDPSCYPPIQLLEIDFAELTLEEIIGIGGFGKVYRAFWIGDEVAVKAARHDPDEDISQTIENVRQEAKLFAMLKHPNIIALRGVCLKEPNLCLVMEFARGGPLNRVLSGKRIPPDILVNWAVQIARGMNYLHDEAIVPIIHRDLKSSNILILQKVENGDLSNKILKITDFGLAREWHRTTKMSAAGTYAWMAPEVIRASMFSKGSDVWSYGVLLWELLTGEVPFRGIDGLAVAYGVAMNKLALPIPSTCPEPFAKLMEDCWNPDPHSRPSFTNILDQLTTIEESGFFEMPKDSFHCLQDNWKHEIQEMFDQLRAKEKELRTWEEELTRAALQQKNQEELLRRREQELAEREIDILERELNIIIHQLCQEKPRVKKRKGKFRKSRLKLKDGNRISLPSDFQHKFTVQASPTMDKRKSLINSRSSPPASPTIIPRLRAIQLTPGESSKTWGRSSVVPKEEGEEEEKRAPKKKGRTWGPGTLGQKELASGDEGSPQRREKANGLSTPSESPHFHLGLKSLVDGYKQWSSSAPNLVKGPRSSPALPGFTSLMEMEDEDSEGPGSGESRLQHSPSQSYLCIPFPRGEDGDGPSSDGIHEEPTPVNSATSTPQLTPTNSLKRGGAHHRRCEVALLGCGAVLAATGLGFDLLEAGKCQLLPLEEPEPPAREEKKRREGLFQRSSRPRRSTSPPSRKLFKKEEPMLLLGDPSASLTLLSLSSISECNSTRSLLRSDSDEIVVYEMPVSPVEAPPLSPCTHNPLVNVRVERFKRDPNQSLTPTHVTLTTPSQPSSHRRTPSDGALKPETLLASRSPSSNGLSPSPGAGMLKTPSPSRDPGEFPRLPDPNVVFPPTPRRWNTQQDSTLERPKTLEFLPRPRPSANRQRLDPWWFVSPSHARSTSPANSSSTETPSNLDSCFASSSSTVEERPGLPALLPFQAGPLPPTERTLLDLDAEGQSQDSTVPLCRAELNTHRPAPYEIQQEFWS
off-target kinases (Homo sapiens, UniProt P22612), sequence (P22612 whole entry): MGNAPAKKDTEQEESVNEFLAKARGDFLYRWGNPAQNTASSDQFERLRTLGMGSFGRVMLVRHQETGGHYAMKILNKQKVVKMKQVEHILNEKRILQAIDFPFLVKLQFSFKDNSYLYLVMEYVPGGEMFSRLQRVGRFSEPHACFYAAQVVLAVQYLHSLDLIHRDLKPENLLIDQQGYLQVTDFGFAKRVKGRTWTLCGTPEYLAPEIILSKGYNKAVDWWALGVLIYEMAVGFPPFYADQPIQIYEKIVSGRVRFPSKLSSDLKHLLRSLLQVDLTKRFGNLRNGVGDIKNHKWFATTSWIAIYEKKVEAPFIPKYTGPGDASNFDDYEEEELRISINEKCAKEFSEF
off-target kinases (Homo sapiens, UniProt Q9H0K1), sequence (Q9H0K1 whole entry): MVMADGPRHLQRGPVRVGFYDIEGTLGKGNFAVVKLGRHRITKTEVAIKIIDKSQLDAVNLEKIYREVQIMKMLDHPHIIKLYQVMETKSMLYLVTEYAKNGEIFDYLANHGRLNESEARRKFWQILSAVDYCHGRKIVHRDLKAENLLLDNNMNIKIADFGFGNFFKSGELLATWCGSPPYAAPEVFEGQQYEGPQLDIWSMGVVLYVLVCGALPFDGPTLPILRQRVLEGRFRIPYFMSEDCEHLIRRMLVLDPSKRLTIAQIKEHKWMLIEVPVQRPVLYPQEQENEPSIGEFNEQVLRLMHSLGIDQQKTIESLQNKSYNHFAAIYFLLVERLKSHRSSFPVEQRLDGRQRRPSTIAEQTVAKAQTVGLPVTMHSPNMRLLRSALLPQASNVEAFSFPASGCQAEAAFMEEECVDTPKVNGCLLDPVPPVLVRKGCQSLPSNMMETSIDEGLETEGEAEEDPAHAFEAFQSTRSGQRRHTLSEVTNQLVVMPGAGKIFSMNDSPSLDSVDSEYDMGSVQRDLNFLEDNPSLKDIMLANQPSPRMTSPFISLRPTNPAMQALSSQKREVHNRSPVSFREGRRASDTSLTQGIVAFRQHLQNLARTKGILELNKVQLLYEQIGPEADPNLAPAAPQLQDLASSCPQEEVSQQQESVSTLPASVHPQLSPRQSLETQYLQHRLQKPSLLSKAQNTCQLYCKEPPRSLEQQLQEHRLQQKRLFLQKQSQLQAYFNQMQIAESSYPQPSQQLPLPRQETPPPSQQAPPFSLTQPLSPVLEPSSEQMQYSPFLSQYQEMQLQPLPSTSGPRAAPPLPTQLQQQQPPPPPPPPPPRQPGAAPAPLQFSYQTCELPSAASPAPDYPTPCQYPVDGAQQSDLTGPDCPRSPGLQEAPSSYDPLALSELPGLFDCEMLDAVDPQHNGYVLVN

Q: Which results are given for `N#Cc1cc(-c2ncnc(Nc3ccc(N4CCN(C5COC5)CC4)cc3)n2)ccc1OC1CCOCC1` [Compound 1, 5-(4-((4-(4-(oxetan-3-yl)piperazin-1-yl)phenyl)amino)-1,3,5-triazin-2-yl)-2-((tetrahydro-2H-pyran-4-yl)oxy)benzonitrile]?
A: inhibition (off-target kinases [1]; read-out: % Inhibition 1): 28%; inhibition (off-target kinases [1]; read-out: % Inhibition 2): 19%; inhibition (off-target kinases [1]; read-out: % Inhibition Avg): 24%; inhibition (off-target kinases [2]; read-out: % Inhibition 1): 53%; inhibition (off-target kinases [2]; read-out: % Inhibition 2): 53%; inhibition (off-target kinases [2]; read-out: % Inhibition Avg): 53%; inhibition (off-target kinases [3]; read-out: % Inhibition 1): 68%; inhibition (off-target kinases [3]; read-out: % Inhibition 2): 73%; inhibition (off-target kinases [3]; read-out: % Inhibition Avg): 70%; inhibition (off-target kinases [4]; read-out: % Inhibition 1): 88%; inhibition (off-target kinases [4]; read-out: % Inhibition 2): 88%; inhibition (off-target kinases [4]; read-out: % Inhibition Avg): 88%; inhibition (off-target kinases [5]; read-out: % Inhibition 1): 7%; inhibition (off-target kinases [5]; read-out: % Inhibition 2): -2%; inhibition (off-target kinases [5]; read-out: % Inhibition Avg): 3%; inhibition (off-target kinases [6]; read-out: % Inhibition 1): 30%; inhibition (off-target kinases [6]; read-out: % Inhibition 2): 26%; inhibition (off-target kinases [6]; read-out: % Inhibition Avg): 28%
